Experimental data published in patent publication US11224222B2, “Synergistic compositions of dehydroacetic acid and methods for reducing yellowing in various end-user compositions” (ISP Investments LLC, priority 2015, dated 2022).
Read-outs that look alike come from different tables or passages of the source.

Tests used:
[1] = tested on: A. brasilensts (ATCC 16404); assay: Synergism study (MIC, synergy index) of DHA with aprotic solvents: A. brasilensts; format: cell-based
Procedure: (§1) Tryptic Soy Broth (TSB) media was used for bacterial evaluations and Yeast Malt Broth (YMB) for fungal evaluations. The compounds DHA or the aprotic solvents were added to the media and serially diluted. After serially diluting the media, 100 μl of a suspension of the testing bacteria or fungi were added to a final concentration of approximately 106 −5 CFU/ml. The inoculated media was then incubated at 32° C. for 2-5 days for bacteria or at 28° C. for 3-7 days for fungi.
(§2) The lowest concentration of each compound or mixtures to inhibit visible growth was taken as the minimum inhibitory concentration (MIC). The MIC's were taken as end points of activity. End points for the mixtures of compound A (DHA) and compound B (aprotic solvent) were then compare with the end points for the pure active ingredient alone.
(§3) Synergism was determined by a commonly used and accepted method described by Kull A. C.; Eisman, P. C.; Sylwestrowicz, H. D. and Mayer, R. L. 1961. […]

[2] = tested on: S. aureus (ATCC 6538); assay: Synergism study (MIC, synergy index) of DHA with aprotic solvents: S. aureus; format: cell-based
Procedure: as §1, §2, §3

[3] = Yellowing of DHA in aprotic and protic solvents; format: physicochemical
Text: The various solvents selected are disclosed in Table 8.
The yellowing of DHA increased drastically when aprotic aromatic compounds were present along with DHA due to radical coupling between DHA and such solvents comprising aromatic compounds.
The decomposition of DHA was low at room temperature (RT) and at high temperature, wherein, the small amount of DHA decompose to form a radical and couple by themselves to form traces high of epsilon chromophoric products and if aromatic aprotic solvents are present along with DHA in solution they couple to form a longer chromophore with high intensity yellow color in water.

[4] = tested on: E. coli (ATCC 8739); assay: Synergism study (MIC, synergy index) of DHA with aprotic solvents: E. coli; format: cell-based
Procedure: as §1, §2, §3

[5] = Solubility of DHA in aprotic and protic solvents
Text: In order to choose the suitable solvent for preparing non-yellowing DHA composition, the different possible protic, aprotic solvents were selected and evaluated individually and also as their suitable mixture.
In case of aprotic solvents, it was selected based on its compatibility with other ingredients present in the end-user products. Further, the regulatory requirement was also considered as an important element in choosing preferred aprotic solvent for preparing non-yellowing/reduced-yellowing DHA composition of the present application. The high content of DHA can be introduced in the solvent by dispersing or dissolving the DHA in their corresponding aprotic solvents. […] The various solvents selected are disclosed in Table 8.
Further, the applicants have evaluated various protic solvents to understand their ability to render non-yellowing/reduced-yellowing DHA composition for employing in various end-user products that are aqueous in nature.

[6] = tested on: Mold Mixture; assay: Preservative Efficacy Test in Lamellar Prolipid formulation: Mold Mixture; format: cell-based
Text: (§4) The detailed composition of these end-user products comprising DHA solubilized Propyelene Carbonate is described below in detail.

[7] = tested on: Bacterial Mixture; assay: Preservative Efficacy Test in Lamellar Prolipid formulation: Bacterial Mixture; format: cell-based
Text: as §4

[8] = tested on: S. aureus; assay: Preservative Efficacy Test in Lamellar Prolipid formulation: S. aureus; format: cell-based
Text: as §4

[9] = DHA in the named aprotic solvent, RT, 1 month
[10] = DHA in the named protic polar solvent, RT
[11] = DHA in the named protic polar solvent (Table 9)

## CC1COC(=O)O1 (stereo not shown) [Propylene carbonate, propylene carbonate]
[1]; read-out: Solvent (B): MIC of solvent acting alone (QB)
  MIC: 6250 µg/mL
[2]; Staphylococcus aureus, ATCC6538, read-out: Solvent (B): MIC of solvent acting alone (QB)
  MIC: 12500 µg/mL
[3]; [9]
  Yellowing at RT For 1 month: No yellowing
[4]; Escherichia coli, ATCC8739, read-out: Solvent (B): MIC of solvent acting alone (QB)
  MIC: 6250 µg/mL

## COC(=O)C(C)O (stereo not shown) [Methyl lactate]
[3]; [9]
  Yellowing at RT For 1 month: No yellow

## Phenethylpropanol
[5]
  % of DHA soluble: 8%
[5]; pH 8
  Comments: Crystallize
[3]; [10]
  Yellowing at RT For 1 month: yellow on day one

## CCCCCCC(O)CO (stereo not shown) [Capryl glycol]
[5]; [11]
  % of DHA soluble: 2.5%
[3]; [10]
  Yellowing at RT For 1 month: Yellow in 30 days

## Phenethyl ethanol
[5]; [11]
  % of DHA soluble: 8%
[3]
  Yellowing at RT For 1 month: Yellow on day one

## CCCCCCC(O)CO (stereo not shown) [0.5% octanediol]
[6]; day 2
  Preservative Efficacy Test count, Mold Mixture, Days 2: 2.10E+04
[6]; day 7
  Preservative Efficacy Test count, Mold Mixture, Days 7: 1.80E+04
[6]; day 14
  Preservative Efficacy Test count, Mold Mixture, Days 14: 4.40E+03
[6]; day 21
  Preservative Efficacy Test count, Mold Mixture, Days 21: 4.30E+03
[6]; day 28
  Preservative Efficacy Test count, Mold Mixture, Days 28: 5.00E+04
[7]; day 2
  Preservative Efficacy Test count, Bacterial Mixture, Days 2: <10
[7]; day 7
  Preservative Efficacy Test count, Bacterial Mixture, Days 7: <10
[7]; day 14
  Preservative Efficacy Test count, Bacterial Mixture, Days 14: <10
[7]; day 21
  Preservative Efficacy Test count, Bacterial Mixture, Days 21: <10
[7]; day 28
  Preservative Efficacy Test count, Bacterial Mixture, Days 28: <10
[8]; day 2
  Preservative Efficacy Test count, S. aureus, Days 2: 4.00E+01
[8]; day 7
  Preservative Efficacy Test count, S. aureus, Days 7: <10
[8]; day 14
  Preservative Efficacy Test count, S. aureus, Days 14: <10
[8]; day 21
  Preservative Efficacy Test count, S. aureus, Days 21: <10
[8]; day 28
  Preservative Efficacy Test count, S. aureus, Days 28: <10

## CCCCC(O)CO (stereo not shown) [1,2hexanediol]
[3]; [10]
  Yellowing at RT For 1 month: Yellow in 9 days

## CO[C@H]1CO[C@H]2[C@@H]1OC[C@H]2OC [Dimethyl isosorbide]
[1]
  Solvent (B): MIC of solvent acting alone (QB): 3125 ppm
[2]
  Solvent (B): MIC of solvent acting alone (QB): 12500 ppm
[5]; DHA in the named aprotic solvent (Table 8)
  % of DHA soluble: 8-10%
[4]
  Solvent (B): MIC of solvent acting alone (QB): 12500 ppm

## C1CCCCC1 [Cyclohexane]
[5]
  % of DHA soluble: 3-5%
[3]; DHA in the named aprotic solvent, 50° C., figures in brackets = Gardner color
  Yellowing At 50° C.: Slight yellowing (2-3)
[3]; [9]
  Yellowing at RT For 1 month: No yellowing

## Water
[3]; DHA in Water, pH 4
  Yellowing at RT For 1 month: No yellowing
[3]; DHA in Water, pH 8
  Yellowing at RT For 1 month: Slight yellowing
